Test results published in a melting point compilation (Tetko et al.; mined from patent text by program, amines drawn as free bases though some values may be those of a salt).

First: CC1CC(C)C(C)(C)c2ccc(-c3cccc(-c4ccc(C(=O)O)cc4)c3O)cc21 (stereo unspecified)
Second: COC(=O)c1ccc(-c2cc(-c3ccc(C(F)(F)F)cc3)on2)cc1
The melting point of the first is lower: 121 °C for the first, 183 to 184 °C for the second.

First: CC(=O)OCC1OC(n2cc(Cc3ccc4occc4c3)c3c(Cl)cccc32)C(OC(C)=O)C(OC(C)=O)C1OC(C)=O (stereo unspecified)
Second: CC(=O)OC1CSC(Oc2ccc(C(=O)NCc3ccccc3)nc2)C(OC(C)=O)C1OC(C)=O (stereo unspecified)
The melting point of the first is higher: 186 to 188 °C for the first, 177 to 178 °C for the second.

Compared with `O=C(NCc1ccccc1)Nc1ccc(N2CC(c3ccccc3)CC2=O)cn1` (stereo unspecified), `O=C(c1ccccc1)c1ccc(OCc2ccccc2)cc1S` is lower in melting point: 172 to 173 °C for the first, 122 to 123 °C for the second.

First: Nc1nc(NCCNCC(O)COc2ccccc2)c2[nH]cnc2n1 (stereo unspecified)
Second: COC(=O)c1ccc(CCCc2cnc3nc(N)nc(O)c3c2)cc1
The melting point of the first is lower: 169 to 171 °C for the first, greater than 250 °C for the second.

First: CS(=O)(=O)Nc1cc2occ(NS(C)(=O)=O)c(=O)c2cc1Oc1ccccc1
Second: CC(C)=CCN1CC(=O)Nc2cc(S(=O)(=O)Oc3ccccc3)ccc21
The melting point of the first is higher: 199 to 200 °C for the first, 132 °C for the second.

First: COC(=O)c1cccc(O)c1O
Second: COC(=O)c1ccc(O)c(C23CC4CC(CC(C4)C2)C3)c1
The melting point of the first is lower: 79 to 81 °C for the first, 183 to 184 °C for the second.

Compared with `CCCCCCCC/C=C\CCCCCCCC1=C(O)C(=O)C=C(OC)C1=O`, `CCOC(=O)CCCCCCCCOC1OC(CO)C(O)C(O)C1NC(C)=O` (stereo unspecified) is higher in melting point: 69.5 to 70.5 °C for the first, 112 °C for the second.

Compared with `CCc1noc(-c2cn(-c3ccc(OC)c(OC)c3)cn2)n1`, `COc1cc(C=CC(=O)c2c(OCC=C(C)C)ccc3c(C)cc(=O)oc23)cc(OC)c1OC` is higher in melting point: 143 °C for the first, 148 to 150 °C for the second.

Compared with `CCN(CC)c1cccc(-c2ccc(C(=O)O)c(=O)[nH]2)c1`, `Cc1cccc(-n2c(=O)[nH]c3ccc(F)cc3c2=O)c1` is higher in melting point: 256 to 258 °C for the first, 278 to 279 °C for the second.

First: O=C1c2ccccc2C2(c3ccccc3)N1CCS2(=O)=O (stereo unspecified)
Second: CN1CCN(c2cc(Sc3ccccc3)nc(-c3ccccc3)n2)CC1
The melting point of the first is higher: 190 to 193 °C for the first, 125 to 128 °C for the second.

Compared with `CCOC(=O)C1(S(=O)(=O)c2ccc(OC)cc2)CCN(Cc2ccc(-c3ccccc3)cc2)CC1`, `CCCCc1nc(SC)c(C(=O)OCC)n1Cc1ccc(-c2ccc(S(=O)(=O)NC#N)cc2)cc1` is higher in melting point: 176 to 178 °C for the first, 244 °C for the second.

First: COc1ccnc(CS(=O)c2nc3cc4c(cc3[nH]2)OC(F)(F)O4)c1 (stereo unspecified)
Second: COc1ccc2cc(Br)sc2c1
The melting point of the first is higher: 184 to 185 °C for the first, 62 °C for the second.

Compared with `Cc1cc(C#N)cc(C(=O)Nc2ccc(C#N)cn2)n1`, `Cc1cnc(C(=O)c2[nH]c3cc(Cl)ccc3c2CC(=O)O)cc1C` is lower in melting point: 279 °C for the first, 226 to 228 °C for the second.

First: O=C(Nc1ncnc2c1ncn2C[C@@H]1O[C@H](CO)[C@@H](O)[C@H]1O)c1ccccc1
Second: CC(=O)Nc1c(C(=O)c2ccccc2)[nH]c2cc(F)ccc12
The melting point of the first is lower: 85 to 90 °C for the first, 144 to 145 °C for the second.

First: Cn1nnnc1SCCCCSc1ccccn1
Second: Cn1nnc(COc2nn3c(-c4ccccc4)nnc3cc2-c2ccccc2)n1
The melting point of the first is lower: 49 to 51.5 °C for the first, 228 to 233 °C for the second.

Compared with `c1ccc(-c2cc(NC3=NCCN3)cc3[nH]cnc23)cc1`, `Cc1cc2c(c(C)c1Br)C(c1ccccc1)CO2` (stereo unspecified) is lower in melting point: 149 to 151 °C for the first, 135 to 136 °C for the second.

First: Cc1cn2cc(Cl)ccc2n1
Second: O=Cc1c(Cl)[nH]c2ccccc12
The melting point of the first is lower: 94 to 96 °C for the first, 227 °C for the second.

First: CC(C)NCC(O)COc1cccc2c1CCC(O)C2 (stereo unspecified)
Second: CCOC(=O)COc1cccc2c1CCC(Br)C2=O (stereo unspecified)
The melting point of the first is higher: 136 to 141 °C for the first, 74 to 75 °C for the second.

Compared with `CC1(C)[C@@H](CNC(=O)c2ccccc2F)CC[C@@]1(C)NCC(=O)N1C[C@@H](F)C[C@H]1C#N`, `COC=C(C(=O)OC)c1ccccc1CON=C(C)c1nn(C)c2cc(OCC3CC3(Cl)Cl)c(F)cc12` (stereo unspecified) is higher in melting point: 123 to 127 °C for the first, 138 to 140 °C for the second.

First: OCCOc1cccc(OCc2ccccc2)c1
Second: COC(=O)c1ccc(COc2ccc3cc(-c4ccc(-c5ccccc5)n4-c4ccccc4)ccc3c2)cc1
The melting point of the first is lower: 40.5 to 43.5 °C for the first, 218 to 219 °C for the second.

First: Cc1oc(-c2ccccc2)nc1COc1ccc(CCC(C(=O)O)c2c[nH]nc2-c2ccccc2)cc1 (stereo unspecified)
Second: Cc1cnc2c(NC(=O)c3c(Cl)cccc3Cl)cccc2c1OCC=Cc1ccccc1
The melting point of the first is lower: 104 to 105 °C for the first, 169 to 171 °C for the second.

Compared with `COc1nc(NC(=O)NS(=O)(=O)c2ccsc2C(=O)C2CC2)nc(OC)n1`, `COC(=O)c1cccc(C)c1NS(=O)(=O)c1nc2nc(C)cc(C)n2n1` is higher in melting point: 146 to 148 °C for the first, 181 to 182 °C for the second.

First: NC(=O)Cc1nc(C(=O)c2ccc(F)cc2)no1
Second: COC(=O)CCC(=O)c1ccc(-c2ccc(Br)cc2F)cc1
The melting point of the first is higher: 197 to 199 °C for the first, 94 to 95 °C for the second.

Compared with `CC12CCC(C(=O)Nc3ccccc3C(c3ccc(O)cc3)c3ccc(O)cc3)(OC1=O)C2(C)C` (stereo unspecified), `CC(C)Oc1ccc(C=C2CCn3c2nc2cc(NC(=O)C(=O)O)ccc2c3=O)cc1` is lower in melting point: 229 to 231 °C for the first, 225 to 229 °C for the second.

First: OCc1cnc2ccc(F)cc2c1O
Second: CCOC(=O)c1cc2n(C)c3ccc(F)cc3c(=O)n2n1
The melting point of the first is higher: 310 to 315 °C for the first, 288 to 290 °C for the second.

Compared with `COC(=O)c1c(C(=O)O)cc2ccc3c(c2c1-c1ccc2c(c1)OCO2)OCO3`, `CC(C)(C)c1ccc2c(c1)C(=O)c1ccc(C(=O)O)cc1S2(=O)=O` is lower in melting point: 273 to 275 °C for the first, 259 to 262 °C for the second.

First: CCN(CC)CC(O)Cn1ccnc1[N+](=O)[O-] (stereo unspecified)
Second: CCN(CC)C(=S)n1cc(F)c(/N=C/N(C)C)nc1=O
The melting point of the first is lower: 92 to 93 °C for the first, 118 to 123 °C for the second.

Compared with `C=CCNc1nc(NCC=C)nc(N2CCN(C(=O)n3ccnc3)CC2)n1`, `COc1ccc(N2CCN(c3ccc(NC(=O)NN)cc3)CC2)cc1` is higher in melting point: 78 to 82 °C for the first, 300 °C for the second.

First: CCCCCNc1n[nH]c(C)c1C(=O)OCC
Second: CCOC(=O)c1cc(-c2csc(C)n2)[nH]n1
The melting point of the first is lower: 117 to 119 °C for the first, 141 to 142 °C for the second.

Compared with `COc1cccc2c1C(=O)N1CCC[C@H]1C(=O)N2`, `NCC1CCn2c(c(C3=C(c4cccc(C(F)(F)F)c4)C(=O)NC3=O)c3ccccc32)C1` (stereo unspecified) is lower in melting point: 247 to 251 °C for the first, 202 to 204 °C for the second.

First: Fc1cccc(-c2ncc(-c3cnc(-c4cccnc4)[nH]3)cn2)c1
Second: Cc1nccn1-c1cccc(-n2cnc3cc(-c4ccoc4)ccc32)c1
The melting point of the first is higher: 309 °C for the first, 105 to 107 °C for the second.

First: Cc1[nH]cnc1/C=C/C(=O)c1cc2ccccc2n1C
Second: Cc1ccccc1CNc1cc(C(=O)N(C)C)cc2c1nc(C)n2C
The melting point of the first is higher: 222 to 224 °C for the first, 158 to 159 °C for the second.

First: CCc1c([N+](=O)[O-])ccc2cc[nH]c12
Second: COC(=O)CC(NSc1ccccc1[N+](=O)[O-])C(=O)O (stereo unspecified)
The melting point of the first is lower: 50 °C for the first, 108 to 109 °C for the second.

First: CCC(C(=O)C(C)C(O)C(C)CCC1=C(C(=O)O)C(O)=C(C)CC1=[N+]=[N-])C1OC(CC)(C2CCC(O)(CC)C(C)O2)CC1C (stereo unspecified)
Second: CC(C)(C)c1cc(C(=O)Nc2nc(C(N)=O)c(CCN3CC4CCC(CC4)C3)s2)cc(C(C)(C)C)c1O
The melting point of the first is lower: 137 to 138 °C for the first, 275 to 276 °C for the second.

First: Cn1cc(S(C)=O)c(=O)c2sc(-c3ccccc3Cl)cc21 (stereo unspecified)
Second: O=c1ccc(-c2ccccc2Cl)n[nH]1
The melting point of the first is lower: 167 to 169 °C for the first, 214 to 216 °C for the second.

Compared with `CCOC(=O)C1CCN(S(C)(=O)=O)CC1`, `CS(=O)(=O)N1CCN(c2cc(Cl)ncn2)CC1` is higher in melting point: 91 to 92 °C for the first, 200 to 202 °C for the second.

Compared with `N#Cc1c(-c2cc3ccccc3s2)nn(-c2ccccc2)c1N`, `Nc1ccc(-c2nc3ccccc3o2)cc1I` is lower in melting point: 260 to 262 °C for the first, 188 to 191 °C for the second.

First: O=C(c1cc2cc3oc(=O)[nH]c3cc2o1)N1CCC(OCc2ccccc2)CC1
Second: CN1CCN(C(=O)c2ccc3cc(-c4csc(N(C)S(=O)(=O)c5ccccc5)n4)c(=O)[nH]c3c2)CC1
The melting point of the first is lower: 217 to 219 °C for the first, 242 to 247 °C for the second.

First: COCCc1nc2c(N)nc3ccc(CCC(=O)N(C)C)cc3c2n1CCCN1CCCC1=O
Second: CC(=O)NC[C@H]1CN(c2ccc(N3CCC(Cc4nnc(N)s4)CC3)c(F)c2)C(=O)O1
The melting point of the first is lower: 184 to 186 °C for the first, 206 to 207 °C for the second.

Compared with `COc1cc(Nc2c(C#N)cnc3cc(-c4csc(CN5CCOCC5)c4)ccc23)c(Cl)cc1C`, `FC(F)(F)c1cccc(CCc2nnc(-c3ccc4ncoc4c3)o2)c1` is lower in melting point: 168 to 170 °C for the first, 117 to 118 °C for the second.

Compared with `CCOC(=O)C1=C(N)C(OCC)=NS1(=O)=O`, `CCCCN1C(N)=NS(=O)(=O)NC1Oc1cccc(C)c1` (stereo unspecified) is higher in melting point: 163 to 165 °C for the first, 217 to 219 °C for the second.

First: COc1ccc(CC2Cc3cc(C)cnc3C(O)C2)cc1 (single isomer, unassigned; (+))
Second: COc1ccc2c(c1)CCc1cc(OC)ccc1N2
The melting point of the first is higher: 132 to 134 °C for the first, 123 to 124 °C for the second.

First: Cc1nsc(OCC(F)(F)F)c1[N+](=O)[O-]
Second: Nc1c(Cl)cc(S(=O)(=O)C(F)(F)F)cc1[N+](=O)[O-]
The melting point of the first is lower: 63 to 64 °C for the first, 138 to 139 °C for the second.

First: O=C1Nc2cnc(N3CCN(c4ncccn4)CC3)nc2S/C1=C/c1ccc([N+](=O)[O-])cc1
Second: CCOC(=O)C(O)C1OC(c2ccccc2Cl)c2cc(Cl)ccc2N(C(C)C)C1=O (stereo unspecified)
The melting point of the first is higher: 320 °C for the first, 126 to 128 °C for the second.

First: COC(=O)C(Oc1ccc(-c2ccc(Cl)cc2)cc1)C(F)(F)F (stereo unspecified)
Second: NC(=O)N1C(=O)C(C(=O)c2cc(Cl)cs2)c2cc(C(F)(F)F)ccc21 (stereo unspecified)
The melting point of the first is lower: 104 to 105 °C for the first, 164 to 166 °C for the second.

First: O=C(O)CN(CC(=O)O)CC(c1ccc([N+](=O)[O-])cc1)N(CC(=O)O)CC(=O)O (stereo unspecified)
Second: O=C(O)C(=O)CC(=O)c1cn(CCCCc2ccccc2)c2ccccc2c1=O
The melting point of the first is higher: 171 to 174 °C for the first, 136 to 138 °C for the second.

Compared with `COc1ccc2[nH]cc(C3=C(c4cc(OC)c(OC)c(OC)c4)C(=O)NC3=O)c2c1`, `COc1ccc(CCN)cc1S(N)(=O)=O` is lower in melting point: 268 °C for the first, 164 to 167 °C for the second.

Compared with `CC(C)(O)c1cc(Br)cnc1N`, `Cc1cc2cn[nH]c(=O)c2n1CC(C)C` is higher in melting point: 107 to 108 °C for the first, 188 to 191 °C for the second.

First: Brc1nnc2n1C=Cc1ccccc1C2
Second: Cn1ccnc1N=Cc1ccccc1
The melting point of the first is higher: 169 to 170 °C for the first, 71 to 72 °C for the second.

First: CCC12CCC(=O)C=C1c1c(cc(OCC(=O)OCC3COC(C)(C)O3)c(Cl)c1Cl)C2 (stereo unspecified)
Second: CCOC(=O)CNC(=O)C1(N(C(=O)c2ccc(N)cc2)N2CCCCC2)CCCCC1
The melting point of the first is higher: 143 to 145 °C for the first, 92 to 96 °C for the second.

Molecule `CC(C)(C)OC(=O)NC(CNC(=O)c1ccccc1)C(=O)O` (stereo unspecified) has a melting point of 110 to 111 °C.
